Drawing on PubChem BioAssay (NCI), this text covers TGI for 14 compounds.

Some test systems named below: ACHN renal; CAKI-1 renal; DU-145 prostate; OVCAR-3 ovarian; RPMI-8226 leukemia; RXF 393 renal; SF-295 CNS; SF-539 CNS; SK-MEL-2 melanoma; SNB-75 CNS.
What all share (assay): DTP human tumour cell line panel, 48 h

Each structure is given as a SMILES string.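 Tested at 5 concentrations; 48 h exposure; 96-well plates; endpoints linearly interpolated, else capped at highest concentration. TGI: concentration producing complete growth inhibition.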

On to `CC1(C)Cc2nc3c(cc2C(=O)C1C=N/C(C#N)=C(\N)C#N)C(=O)C(C=N/C(C#N)=C(\N)C#N)C(C)(C)C3` (stereo not drawn), for which the TGI with ACHN renal was 5.87 µM; with CAKI-1 renal it was 3.54 µM; in the experiment on DU-145 prostate, 8.44 µM; in the experiment on OVCAR-3 ovarian it was 11 µM; in the experiment on RPMI-8226 leukemia it was above 27.7 µM; in the experiment on RXF 393 renal, 3.04 µM. For the same compound, the TGI is 7.56 µM with SF-295 CNS, 2.41 µM with SF-539 CNS, 4.69 µM in the experiment with SK-MEL-2 melanoma and 4.17 µM with SNB-75 CNS.
In the case of `O=C(O)CCSCc1ccccc1`, the TGI with ACHN renal, in the experiment on CAKI-1 renal, with DU-145 prostate, with OVCAR-3 ovarian, in the experiment on RPMI-8226 leukemia and with RXF 393 renal was above 100 µM throughout. Moreover, the TGI in the experiment with SF-295 CNS, in the experiment with SF-539 CNS, in the experiment with SK-MEL-2 melanoma and with SNB-75 CNS was above 100 µM each time.
On to `OC(c1ccc(C(F)(F)F)cc1)C(F)(F)c1nc2ccccc2o1` (stereo not drawn), for which the TGI in the experiment with ACHN renal, in the experiment on CAKI-1 renal, in the experiment with DU-145 prostate, with RPMI-8226 leukemia, with RXF 393 renal and in the experiment on SF-295 CNS was above 100 µM each time. In addition, the TGI with SF-539 CNS, with SK-MEL-2 melanoma and with SNB-75 CNS was above 100 µM throughout.
`O=C1c2ccccc2-c2nnc3c(c21)-c1ccccc1C3`: the TGI in the experiment on ACHN renal is 84.6 µM; in the experiment on CAKI-1 renal, above 100 µM; with DU-145 prostate it was above 100 µM; in the experiment with RPMI-8226 leukemia, above 100 µM; in the experiment on RXF 393 renal, above 100 µM; in the experiment on SF-295 CNS it was above 100 µM. For the same compound, the TGI in the experiment with SF-539 CNS, with SK-MEL-2 melanoma and with SNB-75 CNS was above 100 µM each time.
Regarding `[N-]=[N+]=NC(c1cn(C2CC(O)C(CO)O2)c(=O)[nH]c1=O)C(Cl)I` (stereo not drawn), the TGI with ACHN renal, in the experiment with DU-145 prostate, in the experiment with OVCAR-3 ovarian, with RPMI-8226 leukemia, in the experiment on RXF 393 renal and with SF-295 CNS was above 100 µM in each case. The TGI with SF-539 CNS, with SK-MEL-2 melanoma and in the experiment on SNB-75 CNS was above 100 µM each time.
As to `Cc1c2c(c(O)c3c(O)cccc13)C(=O)C1(O)C(O)=C(C(=O)NCNc3ccc(C(N)=O)cn3)C(=O)C(N(C)C)C1C2` (stereo not drawn), the TGI is 48.4 µM in the experiment with CAKI-1 renal; 20 µM in the experiment with DU-145 prostate; 6.84 µM with OVCAR-3 ovarian; 7.59 µM in the experiment on RPMI-8226 leukemia; 20.1 µM in the experiment with RXF 393 renal; 17.9 µM with SF-295 CNS. Also, the values for the TGI in the experiment on SF-539 CNS, in the experiment on SK-MEL-2 melanoma and in the experiment on SNB-75 CNS were 7.42 µM, 34.1 µM and 9.22 µM, respectively.
Turning to `O=C1C(=O)N(c2cccc(C(F)(F)F)c2)C(=S)N1c1ccccc1`, the TGI in the experiment with ACHN renal was 30.6 µM; with CAKI-1 renal, 79.4 µM; in the experiment with DU-145 prostate, above 100 µM; in the experiment with RPMI-8226 leukemia, above 100 µM; with RXF 393 renal it was above 100 µM; with SF-295 CNS, above 100 µM. Also, the TGI in the experiment with SF-539 CNS is 80.6 µM; in the experiment with SK-MEL-2 melanoma, 40.5 µM; in the experiment with SNB-75 CNS, above 100 µM.
For the compound `COc1ccc(C2SCC(=O)N2NC(=O)c2ccc(NC(C)=O)cc2)c(OC)c1` (stereo not drawn), the TGI in the experiment on ACHN renal, with DU-145 prostate, in the experiment with OVCAR-3 ovarian, in the experiment on RPMI-8226 leukemia, in the experiment on RXF 393 renal and in the experiment on SF-295 CNS was above 100 µM each time. Further, the TGI with SF-539 CNS, in the experiment with SK-MEL-2 melanoma and with SNB-75 CNS was above 100 µM in each case.
Take `N#CC(Cc1ccccc1)N(CCC1=CCCCC1)Cc1ccccc1` (stereo not drawn): the TGI is above 100 µM with ACHN renal; above 100 µM in the experiment on CAKI-1 renal; above 100 µM in the experiment with DU-145 prostate; above 100 µM in the experiment with OVCAR-3 ovarian; 63.5 µM in the experiment on RPMI-8226 leukemia; above 100 µM with RXF 393 renal. Moreover, the TGI in the experiment with SF-295 CNS, with SK-MEL-2 melanoma and in the experiment with SNB-75 CNS was above 100 µM each time.
Take `CC(C)[C@H](NC(=O)[C@H](N)Cc1ccc(N(CCCl)CCCl)cc1)C(=O)O`: the TGI in the experiment with ACHN renal, in the experiment with CAKI-1 renal, in the experiment on DU-145 prostate, with OVCAR-3 ovarian, with RPMI-8226 leukemia and in the experiment with RXF 393 renal was above 100 µM throughout. In addition, the TGI in the experiment with SF-295 CNS, in the experiment on SK-MEL-2 melanoma and with SNB-75 CNS was above 100 µM throughout.
Regarding `O=c1[nH]nc(Cc2c[nH]c3ccccc23)o1`, the TGI with ACHN renal, with CAKI-1 renal, in the experiment with DU-145 prostate, in the experiment on OVCAR-3 ovarian, in the experiment with RPMI-8226 leukemia and with RXF 393 renal was above 100 µM in each case. In addition, the TGI with SF-295 CNS, in the experiment with SF-539 CNS and in the experiment on SK-MEL-2 melanoma was above 100 µM throughout.
With `Cn1c(=O)c2c(nc3n2CCCC(=O)N3CC(O)CCl)n(C)c1=O` (stereo not drawn), the TGI in the experiment on ACHN renal, in the experiment on CAKI-1 renal, in the experiment on DU-145 prostate, in the experiment with OVCAR-3 ovarian, with RPMI-8226 leukemia and in the experiment with RXF 393 renal was above 100 µM each time. For the same compound, the concentration for total growth inhibition (TGI) with SF-295 CNS, with SK-MEL-2 melanoma and with SNB-75 CNS was above 100 µM throughout.
For the compound `COc1cc(-c2cc(=O)c3c(O)c(CC=C(C)C)c(O)cc3o2)ccc1O`, the TGI was above 50 µM with ACHN renal; 28 µM with CAKI-1 renal; above 50 µM in the experiment on DU-145 prostate; above 50 µM in the experiment on OVCAR-3 ovarian; 36.3 µM with RPMI-8226 leukemia; above 50 µM in the experiment on RXF 393 renal. Besides, the TGI in the experiment on SF-295 CNS is 31.2 µM; in the experiment on SF-539 CNS, 47.6 µM; with SK-MEL-2 melanoma, above 50 µM.
As for `CC(C)C(=O)Nc1cc(C(F)(F)F)ccc1[N+](=O)[O-]`, the TGI in the experiment on ACHN renal, in the experiment on CAKI-1 renal, with DU-145 prostate, with OVCAR-3 ovarian, with RPMI-8226 leukemia and in the experiment with RXF 393 renal was above 100 µM throughout. Further, the TGI with SF-295 CNS, with SF-539 CNS and in the experiment with SK-MEL-2 melanoma was above 100 µM each time.
